Reference: ChEMBL document CHEMBL1132084, “Thrombin inhibitors based on a propargylglycine template” (Bioorg Med Chem Lett, 1999)
One block for each compound: values may come before it.

Experiments:
Plasminogen = Plasminogen (Homo sapiens, UniProt P00747); assay: Inhibitory activity against plasmin
[1] = biological target: Tissue-type plasminogen activator (Homo sapiens, UniProt P00750); assay: Inhibitory activity against tissue type plasminogen activator (t-PA)
Prothrombin = Prothrombin (Homo sapiens, UniProt P00734); assay: Inhibition of human thrombin
Coagulation factor X = Coagulation factor X (Homo sapiens, UniProt P00742); assay: Inhibitory activity against factor Xa
Serine protease 1 = biological target: T1, Serine protease 1 (Bos taurus, UniProt P00760); assay: Inhibitory activity against bovine trypsin
T1 sequence (P00760 whole entry): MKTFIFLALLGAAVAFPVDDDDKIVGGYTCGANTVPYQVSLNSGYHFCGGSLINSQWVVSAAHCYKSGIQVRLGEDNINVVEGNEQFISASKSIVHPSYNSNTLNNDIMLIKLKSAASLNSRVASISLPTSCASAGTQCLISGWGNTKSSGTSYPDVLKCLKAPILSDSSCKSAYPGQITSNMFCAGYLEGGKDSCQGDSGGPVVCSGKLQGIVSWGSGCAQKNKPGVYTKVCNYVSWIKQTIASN

[2] = Cmax at a dose of […] mg/kg in rat; format: ADME, organism-based; conditions: in vivo, 30 mg/kg
[3] = Tmax at a dose of 30 mg/kg in rat; format: ADME, organism-based; parameters: dose 30 mg/kg; conditions: in vivo
[4] = Area under was determined at a dose of 30 mg/kg; format: ADME, organism-based; parameters: dose 30 mg/kg; conditions: in vivo

Plasminogen, sequence (P00747 97-580 limits assumed): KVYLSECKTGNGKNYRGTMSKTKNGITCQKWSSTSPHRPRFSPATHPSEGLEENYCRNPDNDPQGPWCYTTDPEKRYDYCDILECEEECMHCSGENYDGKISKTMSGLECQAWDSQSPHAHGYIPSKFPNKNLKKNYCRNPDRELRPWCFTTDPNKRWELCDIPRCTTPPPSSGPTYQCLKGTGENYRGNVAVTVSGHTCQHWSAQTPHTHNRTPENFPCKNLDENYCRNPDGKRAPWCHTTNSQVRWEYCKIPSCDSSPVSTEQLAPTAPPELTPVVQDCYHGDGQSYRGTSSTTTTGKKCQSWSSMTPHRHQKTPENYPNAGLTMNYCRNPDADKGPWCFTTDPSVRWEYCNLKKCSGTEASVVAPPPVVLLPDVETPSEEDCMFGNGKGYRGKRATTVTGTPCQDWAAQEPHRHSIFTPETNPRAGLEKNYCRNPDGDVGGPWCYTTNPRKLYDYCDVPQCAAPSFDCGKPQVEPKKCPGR
Plasminogen, sequence (P00747 581-810 limits assumed): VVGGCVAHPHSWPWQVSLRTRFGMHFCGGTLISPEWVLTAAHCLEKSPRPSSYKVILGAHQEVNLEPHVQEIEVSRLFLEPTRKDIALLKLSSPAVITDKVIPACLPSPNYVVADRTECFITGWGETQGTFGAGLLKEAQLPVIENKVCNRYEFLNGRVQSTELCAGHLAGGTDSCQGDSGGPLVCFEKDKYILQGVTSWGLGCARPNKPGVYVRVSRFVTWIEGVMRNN
Tissue-type plasminogen activator, sequence (P00750 whole entry): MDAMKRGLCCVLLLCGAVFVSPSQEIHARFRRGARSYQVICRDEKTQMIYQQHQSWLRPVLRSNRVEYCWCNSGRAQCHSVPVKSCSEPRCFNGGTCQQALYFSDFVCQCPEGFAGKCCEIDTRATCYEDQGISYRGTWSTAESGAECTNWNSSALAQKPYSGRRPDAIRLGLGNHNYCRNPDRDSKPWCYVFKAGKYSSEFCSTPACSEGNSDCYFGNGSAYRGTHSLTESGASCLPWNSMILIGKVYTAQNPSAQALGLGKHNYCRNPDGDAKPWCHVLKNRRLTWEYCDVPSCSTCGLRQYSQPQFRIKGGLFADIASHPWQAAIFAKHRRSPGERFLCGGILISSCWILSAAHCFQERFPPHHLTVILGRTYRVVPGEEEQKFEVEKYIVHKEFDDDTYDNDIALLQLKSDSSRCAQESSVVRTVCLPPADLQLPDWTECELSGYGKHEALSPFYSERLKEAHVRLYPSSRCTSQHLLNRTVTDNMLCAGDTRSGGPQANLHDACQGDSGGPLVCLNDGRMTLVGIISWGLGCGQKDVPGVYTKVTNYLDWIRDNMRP
Coagulation factor X, sequence (P00742 41-179 limits assumed): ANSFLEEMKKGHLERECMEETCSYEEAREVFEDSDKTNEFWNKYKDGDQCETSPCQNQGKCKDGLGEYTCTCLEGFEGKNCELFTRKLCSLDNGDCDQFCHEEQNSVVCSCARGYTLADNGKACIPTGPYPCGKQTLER
Coagulation factor X, sequence (P00742 235-488 limits assumed): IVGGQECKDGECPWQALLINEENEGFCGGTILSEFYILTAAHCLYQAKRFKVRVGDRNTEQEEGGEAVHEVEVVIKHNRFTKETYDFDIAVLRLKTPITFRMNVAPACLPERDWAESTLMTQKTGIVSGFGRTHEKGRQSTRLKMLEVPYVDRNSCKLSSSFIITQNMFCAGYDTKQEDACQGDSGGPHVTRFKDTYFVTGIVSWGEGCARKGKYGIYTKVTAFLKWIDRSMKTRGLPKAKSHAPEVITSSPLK

Structure (SMILES): CNc1ccc(C#CC[C@H](NS(=O)(=O)c2ccc3cc(OC)ccc3c2)C(=O)N(C)C2CCCC2)cc1
Ki (Plasminogen): > 200 µM
Ki [1]: > 200 µM
Ki (Prothrombin): 0.027 µM
Ki (Coagulation factor X): 14 µM
Ki (Serine protease 1): > 30 µM

Structure (SMILES): CN(C(=O)[C@H](CC#Cc1cnc(N)nc1)NS(=O)(=O)c1ccc2ccccc2c1)C1CCCC1
Ki (Prothrombin): > 20 µM

Structure (SMILES): CNc1ncc(C#CC[C@H](NS(=O)(=O)c2ccc3ccccc3c2)C(=O)N(C)C2CCCC2)cn1
Ki (Prothrombin): 3.5 µM

Structure (SMILES): CN(C(=O)[C@H](CC#Cc1cccnc1)NS(=O)(=O)c1ccc2ccccc2c1)C1CCCC1
Ki (Prothrombin): 2.5 µM

Structure (SMILES): CN(C(=O)[C@H](CC#Cc1cnc[nH]1)NS(=O)(=O)c1ccc2ccccc2c1)C1CCCC1
Ki (Prothrombin): 3 µM

Structure (SMILES): CCCc1ccc(S(=O)(=O)N[C@@H](CC#Cc2ccc(NC)cc2)C(=O)N(C)C2CCCC2)cc1
Ki (Plasminogen): > 200 µM
Ki [1]: 190 µM
Ki (Prothrombin): 0.008 µM
Ki (Coagulation factor X): 6.6 µM
Ki (Serine protease 1): > 30 µM

Structure (SMILES): CNc1ccc(C#CC[C@H](NS(=O)(=O)c2ccc3c(c2)CCCC3)C(=O)N(C)C2CCCC2)cc1
Cmax [2]: 1800 nM
Tmax [3]: 45 min
Ki (Plasminogen): > 200 µM
Ki [1]: 200 µM
Ki (Prothrombin): 0.005 µM
Ki (Coagulation factor X): 1.9 µM
AUC [4]: 4.6 µM·h
Ki (Serine protease 1): > 30 µM

Structure (SMILES): CNc1ccc(C#CC[C@H](NS(=O)(=O)c2ccc3ccccc3c2)C(=O)N(C)C2CCCC2)cc1
Ki (Plasminogen): > 200 µM
Ki [1]: > 200 µM
Ki (Prothrombin): 0.019 µM
Ki (Coagulation factor X): 8.7 µM
Ki (Serine protease 1): 37 µM

Structure (SMILES): CN(C(=O)[C@H](CC#Cc1cnc(N)s1)NS(=O)(=O)c1ccc2ccccc2c1)C1CCCC1
Ki (Prothrombin): 4.5 µM

Structure (SMILES): CCNc1ccc(C#CC[C@H](NS(=O)(=O)c2ccc3ccccc3c2)C(=O)N(C)C2CCCC2)cc1
Ki (Prothrombin): 49 µM

Second part, the compound after the results:

Ki (Prothrombin): 0.04 µM
Ki (Serine protease 1): 32 µM
Structure (SMILES): CNc1ccc(C#CC[C@H](NS(=O)(=O)c2ccc3ccccc3c2)C(=O)N(C)C2CCCC2)cc1N

Ki (Prothrombin): 0.29 µM
Structure (SMILES): CN(C(=O)[C@H](CC#Cc1ccc(N)cc1)NS(=O)(=O)c1ccc2ccccc2c1)C1CCCC1

Ki (Prothrombin): 0.3 µM
Structure (SMILES): CNc1ccc(C#CC[C@H](NS(=O)(=O)c2ccc3ccccc3c2)C(=O)N(C)C2CCCC2)cn1

Ki (Prothrombin): 1.5 µM
Structure (SMILES): CN(C(=O)[C@H](CC#Cc1ccc(N)nc1)NS(=O)(=O)c1ccc2ccccc2c1)C1CCCC1

Ki (Prothrombin): 0.22 µM
Structure (SMILES): CN(C(=O)[C@H](CC#Cc1ccc(N)c(N)c1)NS(=O)(=O)c1ccc2ccccc2c1)C1CCCC1

Ki (Prothrombin): 2.2 µM
Structure (SMILES): CN(C(=O)[C@H](CC#Cc1cccc(N)c1)NS(=O)(=O)c1ccc2ccccc2c1)C1CCCC1

Ki (Prothrombin): 3.4 µM
Structure (SMILES): CN(C(=O)[C@H](CC#Cc1ccc(CN)cc1)NS(=O)(=O)c1ccc2ccccc2c1)C1CCCC1

Ki (Prothrombin): 1.5 µM
Structure (SMILES): CN(C(=O)[C@H](CC#Cc1ccc(NN)cc1)NS(=O)(=O)c1ccc2ccccc2c1)C1CCCC1

Ki (Prothrombin): > 20 µM
Structure (SMILES): CN(C(=O)[C@H](CC#Cc1ccncc1)NS(=O)(=O)c1ccc2ccccc2c1)C1CCCC1
